Laboratory results published in patent US10407409B2, “6-(5-hydroxy-1H-pyrazol-1-yl)nicotinamide inhibitors of PHD” (Takeda Pharmaceutical Company Limited, priority 2013, dated 2019).

Tests used:
[1] = test system: HIF1a protein in H9c2 rat cardiomyocytes; assay: Cell-based HIF-alpha stabilization assay (inhibition of PHD in cells); conditions: 24 hrs compound incubation, HIF1a protein by ELISA; for EC50: Rattus norvegicus, H9c2, 24 h, read-out: Inhibition of PHD in cells (pEC50) (converted)
How it was run: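 HIF1a stabilization was measured by ELISA on lysates of H9c2 rat cardiomyocytes after 24 h exposure to 11 serial compound concentrations, expressed relative to the desferrioxamine maximum. Curve fits gave EC50. EC50pos denotes the concentration producing half the desferrioxamine maximal response.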

[2] = target: PHD2 enzyme (residues 181-417) (Homo sapiens (Human), UniProt Q9GZT9); assay: Inhibition of PHD enzyme (LC/MS peptide hydroxylation assay); type: biochemical; conditions: PHD2 (residues 181-417) 5 nM, 60 min pre-incubation; -log(IC50), IC50 molar
PHD2 enzyme (residues 181-417), sequence (Q9GZT9 181-417): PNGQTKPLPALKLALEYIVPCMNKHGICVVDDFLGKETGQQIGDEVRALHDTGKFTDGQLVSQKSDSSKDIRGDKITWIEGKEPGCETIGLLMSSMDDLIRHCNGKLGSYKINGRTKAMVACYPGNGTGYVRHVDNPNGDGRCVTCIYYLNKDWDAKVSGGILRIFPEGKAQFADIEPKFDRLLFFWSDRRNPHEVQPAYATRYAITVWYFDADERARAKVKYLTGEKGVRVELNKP
How it was run: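 Hydroxylated peptide quantified by LC/MS after 60 min turnover of 1 uM biotinylated peptide with 2 uM 2-oxoglutarate and 1 mM ascorbate, stopped by excess tight-binding inhibitor. Beforehand, 5 nM enzyme and compound were preincubated 60 min at RT, pH 7.3 HEPES/KCl/TCEP/FeCl2/BSA buffer. Values as pIC50 (−log molar IC50).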

Structure (SMILES)	EC50 [1]	PHD Inhibition (pIC50) [2]	Inhibition of PHD in cells (pEC50) [1]
Cc1cc(C#N)ccc1-c1cnn(-c2ccc(C(=O)NCC3CCCO3)cn2)c1O (stereo not shown) [Example 133, 6-(4-(4-cyano-2-methylphenyl)-5-hydroxy-1H-pyrazol-1-yl)-N-((tetrahydrofuran-2-yl)methyl)nicotinamide]	195 nM	7.17	
Cc1cc(C#N)ccc1-c1cnn(-c2ccc(C(=O)NC3CCC3)cn2)c1O [Example 134, 6-(4-(4-cyano-2-methylphenyl)-5-hydroxy-1H-pyrazol-1-yl)-N-cyclobutylnicotinamide]	339 nM	7.21	
COCC1(CNC(=O)c2ccc(-n3ncc(-c4ccc(C#N)cc4C)c3O)nc2)CC1 [Example 135, 6-(4-(4-cyano-2-methylphenyl)-5-hydroxy-1H-pyrazol-1-yl)-N-((1-(methoxymethyl)cyclopropyl)methyl)nicotinamide]	148 nM	7.15	
COCC(C)NC(=O)c1ccc(-n2ncc(-c3ccc(C#N)cc3C)c2O)nc1 (stereo not shown) [Example 136, 6-(4-(4-cyano-2-methylphenyl)-5-hydroxy-1H-pyrazol-1-yl)-N-(1-methoxypropan-2-yl)nicotinamide]	112 nM	7.13	
Cc1cc(C#N)ccc1-c1cnn(-c2ccc(C(=O)N[C@@H]3CCOC3)cn2)c1O [Example 137, (R)-6-(4-(4-cyano-2-methylphenyl)-5-hydroxy-1H-pyrazol-1-yl)-N-(tetrahydrofuran-3-yl)nicotinamide]	245 nM	7.21	
Cc1cc(C#N)ccc1-c1cnn(-c2ccc(C(=O)N[C@H](C)C3CC3)cn2)c1O [Example 138A, (R)-6-(4-(4-cyano-2-methylphenyl)-5-hydroxy-1H-pyrazol-1-yl)-N-(1-cyclopropylethyl)nicotinamide]	302 nM	6.95	
Cc1cc(C#N)ccc1-c1cnn(-c2ccc(C(=O)N[C@H]3CC[C@H](O)CC3)cn2)c1O [Example 139, 6-(4-(4-cyano-2-methylphenyl)-5-hydroxy-1H-pyrazol-1-yl)-N-((1r,4r)-4-hydroxycyclohexyl)nicotinamide]		7.36	7.09
Cc1cc(C#N)ccc1-c1cnn(-c2ccc(C(=O)NC3CCN(C4CC4)CC3)cn2)c1O [Example 140, 6-(4-(4-cyano-2-methylphenyl)-5-hydroxy-1H-pyrazol-1-yl)-N-(1-cyclopropylpiperidin-4-yl)nicotinamide]	120 nM	8.1	
Cc1cc(C#N)ccc1-c1cnn(-c2ccc(C(=O)NCCCn3cccn3)cn2)c1O [Example 141]	407 nM	8.3	
Cc1cc(C#N)ccc1-c1cnn(-c2ccc(C(=O)NCC3CCCCO3)cn2)c1O (stereo not shown) [Example 142, 6-(4-(4-cyano-2-methylphenyl)-5-hydroxy-1H-pyrazol-1-yl)-N-((tetrahydro-2H-pyran-2-yl)methyl)nicotinamide]	85.1 nM	8.3	
COCC1(CNC(=O)c2ccc(-n3ncc(-c4ccc(C#N)cc4C)c3O)nc2)CCCC1 [Example 143, 6-(4-(4-cyano-2-methylphenyl)-5-hydroxy-1H-pyrazol-1-yl)-N-((1-(methoxymethyl)cyclopentyl)methyl)nicotinamide]	891 nM	7.9	
C[C@H]1CC[C@H](NC(=O)c2ccc(-n3ncc(-c4ccc(C#N)cc4)c3O)nc2)CC1 [Example 144, 6-(4-(4-cyanophenyl)-5-hydroxy-1H-pyrazol-1-yl)-N-((1r,4r)-4-methylcyclohexyl)nicotinamide]	1700 nM	8.1	
COC(C)CCNC(=O)c1ccc(-n2ncc(-c3ccc(C#N)cc3)c2O)nc1 (stereo not shown) [Example 145, 6-(4-(4-cyanophenyl)-5-hydroxy-1H-pyrazol-1-yl)-N-(3-methoxybutyl)nicotinamide]	501 nM	8.3	
COCC(C)CNC(=O)c1ccc(-n2ncc(-c3ccc(C#N)cc3)c2O)nc1 (stereo not shown) [Example 146, 6-(4-(4-cyanophenyl)-5-hydroxy-1H-pyrazol-1-yl)-N-(3-methoxy-2-methylpropyl)nicotinamide]	692 nM	8.3	
COCC1(CNC(=O)c2ccc(-n3ncc(-c4ccc(C#N)cc4)c3O)nc2)CCCC1 [Example 147, 6-(4-(4-cyanophenyl)-5-hydroxy-1H-pyrazol-1-yl)-N-((1-(methoxymethyl)cyclopentyl)methyl)nicotinamide]	3240 nM	7.9	
COCCCNC(=O)c1ccc(-n2ncc(-c3ccc(C#N)cc3)c2O)nc1 [Example 148, 6-(4-(4-cyanophenyl)-5-hydroxy-1H-pyrazol-1-yl)-N-(3-methoxypropyl)nicotinamide]	631 nM	7.57	

Structure (SMILES)	EC50 [1]	PHD Inhibition (pIC50) [2]	Inhibition of PHD in cells (pEC50) [1]
COCC1(NC(=O)c2ccc(-n3ncc(-c4ccc(C#N)cc4)c3O)nc2)CCCC1 [Example 149, 6-(4-(4-cyanophenyl)-5-hydroxy-1H-pyrazol-1-yl)-N-(1-(methoxymethyl)cyclopentyl)nicotinamide]	776 nM	7.28	
CNC(=O)c1ccc(-n2ncc(-c3ccc(C#N)cc3)c2O)nc1 [Example 150, 6-(4-(4-cyanophenyl)-5-hydroxy-1H-pyrazol-1-yl)-N-methylnicotinamide]	2510 nM	7.58	
N#Cc1ccc(-c2cnn(-c3ccc(C(=O)NC4CCCC4)cn3)c2O)cc1 [Example 151, 6-(4-(4-cyanophenyl)-5-hydroxy-1H-pyrazol-1-yl)-N-cyclopentylnicotinamide]	3630 nM	7.12	
COCCNC(=O)c1ccc(-n2ncc(-c3ccc(C#N)cc3)c2O)nc1 [Example 152, 6-(4-(4-cyanophenyl)-5-hydroxy-1H-pyrazol-1-yl)-N-(2-methoxyethyl)nicotinamide]	2040 nM	7.6	
N#Cc1ccc(-c2cnn(-c3ccc(C(=O)NCC4CCCO4)cn3)c2O)cc1 (stereo not shown) [Example 153, 6-(4-(4-cyanophenyl)-5-hydroxy-1H-pyrazol-1-yl)-N-((tetrahydrofuran-2-yl)methyl)nicotinamide]	1380 nM	7.57	
N#Cc1ccc(-c2cnn(-c3ccc(C(=O)N[C@@H]4CCOC4)cn3)c2O)cc1 [Example 154, (R)-6-(4-(4-cyanophenyl)-5-hydroxy-1H-pyrazol-1-yl)-N-(tetrahydrofuran-3-yl)nicotinamide]	1480 nM	7.68	
N#Cc1ccc(-c2cnn(-c3ccc(C(=O)NC4CCCOC4)cn3)c2O)cc1 (stereo not shown) [Example 155, 6-(4-(4-cyanophenyl)-5-hydroxy-1H-pyrazol-1-yl)-N-(tetrahydro-2H-pyran-3-yl)nicotinamide]	1550 nM	7.62	
COCC(NC(=O)c1ccc(-n2ncc(-c3ccc(C#N)cc3)c2O)nc1)C(C)C (stereo not shown) [Example 156, 6-(4-(4-cyanophenyl)-5-hydroxy-1H-pyrazol-1-yl)-N-(1-methoxy-3-methylbutan-2-yl)nicotinamide]	891 nM	7.47	
N#Cc1cnn(-c2cnn(-c3ccc(C(=O)NCc4ccccc4)cn3)c2O)c1 [Example 157, N-benzyl-6-(4-cyano-5′-hydroxy-1′H-[1,4′-bipyrazol]-1′-yl)nicotinamide]	1700 nM	6.97	
N#Cc1cnn(-c2cnn(-c3ccc(C(=O)NCC4CCOCC4)cn3)c2O)c1 [Example 158, 6-(4-cyano-5′-hydroxy-1′H-[1,4′-bipyrazol]-1′-yl)-N-((tetrahydro-2H-pyran-4-yl)methyl)nicotinamide]	9550 nM	6.71	
CC(C)NC(=O)c1ccc(-n2ncc(-c3ccc(C#N)cc3)c2O)nc1 [Example 159, 6-(4-(4-cyanophenyl)-5-hydroxy-1H-pyrazol-1-yl)-N-isopropylnicotinamide]	912 nM	7.15	
CC(C)CNC(=O)c1ccc(-n2ncc(-c3ccc(C#N)cc3)c2O)nc1 [Example 160, 6-(4-(4-cyanophenyl)-5-hydroxy-1H-pyrazol-1-yl)-N-isobutylnicotinamide]	759 nM	6.9	
N#Cc1ccc(-c2cnn(-c3ccc(C(=O)NC4CC4)cn3)c2O)cc1 [Example 161, 6-(4-(4-cyanophenyl)-5-hydroxy-1H-pyrazol-1-yl)-N-cyclopropylnicotinamide]	447 nM	7.18	
CCOCCCNC(=O)c1ccc(-n2ncc(-c3ccc(C#N)cc3)c2O)nc1 [Example 162, 6-(4-(4-cyanophenyl)-5-hydroxy-1H-pyrazol-1-yl)-N-(3-ethoxypropyl)nicotinamide]	1150 nM	7.23	
CC(C)OCCCNC(=O)c1ccc(-n2ncc(-c3ccc(C#N)cc3)c2O)nc1 [Example 163, 6-(4-(4-cyanophenyl)-5-hydroxy-1H-pyrazol-1-yl)-N-(3-isopropoxypropyl)nicotinamide]	1480 nM	7.28	
N#Cc1ccc(-c2cnn(-c3ccc(C(=O)N[C@H]4CC[C@@H](O)CC4)cn3)c2O)cc1 [Example 164, 6-(4-(4-cyanophenyl)-5-hydroxy-1H-pyrazol-1-yl)-N-((1 s,4s)-4-hydroxycyclohexyl)nicotinamide]	525 nM	7.5	
